# Results published in ChEMBL document CHEMBL5104103 (J Med Chem, 2022).
# Key:
# [1] = Permeability across basolateral to apical membrane in human Caco-2 cells; assay type: ADME, cell-based; conditions: read-out: permeability
# [2] = Clearance in human liver S9 fraction assessed as measuring per mg protein by LCMS/MS analysis; assay type: ADME, subcellular; conditions: read-out: CLH
# [3] = Inhibition of anti-IgM-stimulated CD20+ B cell activation in human whole blood assessed as measuring CD69 expression level pretreated for 1 hr followed by anti-IgM stimulation measured after 18 hrs by flow cytometry
# [4] = Oral bioavailability in rat at 20 mg/kg; assay type: ADME, organism-based; conditions: in vivo
# [5] = Clearance in rat at 2 mg/kg, iv; assay type: ADME, organism-based; conditions: in vivo
# [6] = Cmax in rat at 20 mg/kg, po or 2 mg/kg, iv; assay type: ADME, organism-based; parameters: dose 20 mg/kg, route po; conditions: in vivo
# [7] = Solubility of compound in PBS at pH 7 by LCMS/MS analysis; assay type: physicochemical
# [8] = AUC in rat at 20 mg/kg, po or 2 mg/kg, iv; assay type: ADME, organism-based; parameters: dose 20 mg/kg, route po; conditions: in vivo, read-out: AUC
# [9] = Permeability across apical to basolateral membrane in human Caco-2 cells; assay type: ADME, cell-based; conditions: read-out: permeability
# [10] = target: Voltage-gated inwardly rectifying potassium channel KCNH2 (Homo sapiens, UniProt Q12809); experiment: Inhibition of hERG; assay type: toxicity
# [11] = Drug concentration in plasma of collagen-induced arthritis Lewis rat model 20 mg/kg measured after 4 hrs post-collection of plasma; assay type: ADME, organism-based
# [12] = target: T1, Cytoplasmic tyrosine-protein kinase BMX (Homo sapiens, UniProt P51813); experiment: Inhibition of BMX (unknown origin) using peptide substrate in presence of ATP
# T1 sequence (P51813 whole entry): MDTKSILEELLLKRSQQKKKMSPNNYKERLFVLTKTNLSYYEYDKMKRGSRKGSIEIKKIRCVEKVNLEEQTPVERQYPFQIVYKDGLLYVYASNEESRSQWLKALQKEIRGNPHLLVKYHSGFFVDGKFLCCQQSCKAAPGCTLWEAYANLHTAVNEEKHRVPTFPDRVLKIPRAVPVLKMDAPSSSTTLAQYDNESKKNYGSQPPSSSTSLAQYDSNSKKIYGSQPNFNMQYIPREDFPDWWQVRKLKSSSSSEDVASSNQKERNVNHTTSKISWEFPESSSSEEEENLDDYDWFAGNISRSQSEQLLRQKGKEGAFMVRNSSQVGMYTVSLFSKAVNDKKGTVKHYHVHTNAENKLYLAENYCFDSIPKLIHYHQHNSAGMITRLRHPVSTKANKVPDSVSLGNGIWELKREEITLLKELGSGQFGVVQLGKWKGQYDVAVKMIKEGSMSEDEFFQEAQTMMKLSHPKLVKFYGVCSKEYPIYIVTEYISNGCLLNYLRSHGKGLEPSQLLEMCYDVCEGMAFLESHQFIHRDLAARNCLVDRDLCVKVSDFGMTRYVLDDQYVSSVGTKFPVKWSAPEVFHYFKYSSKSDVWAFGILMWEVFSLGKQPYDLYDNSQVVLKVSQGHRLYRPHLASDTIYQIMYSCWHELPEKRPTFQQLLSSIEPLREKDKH
# [13] = Drug concentration in plasma of collagen-induced arthritis Lewis rat model 20 mg/kg measured after 24 hrs post-collection of plasma; assay type: ADME, organism-based; conditions: in vivo, BLD = below limit of detection
# [14] = target: T2, Tyrosine-protein kinase Tec (Homo sapiens, UniProt P42680); experiment: Inhibition of TEC (unknown origin) using peptide substrate in presence of ATP
# T2 sequence (P42680 whole entry): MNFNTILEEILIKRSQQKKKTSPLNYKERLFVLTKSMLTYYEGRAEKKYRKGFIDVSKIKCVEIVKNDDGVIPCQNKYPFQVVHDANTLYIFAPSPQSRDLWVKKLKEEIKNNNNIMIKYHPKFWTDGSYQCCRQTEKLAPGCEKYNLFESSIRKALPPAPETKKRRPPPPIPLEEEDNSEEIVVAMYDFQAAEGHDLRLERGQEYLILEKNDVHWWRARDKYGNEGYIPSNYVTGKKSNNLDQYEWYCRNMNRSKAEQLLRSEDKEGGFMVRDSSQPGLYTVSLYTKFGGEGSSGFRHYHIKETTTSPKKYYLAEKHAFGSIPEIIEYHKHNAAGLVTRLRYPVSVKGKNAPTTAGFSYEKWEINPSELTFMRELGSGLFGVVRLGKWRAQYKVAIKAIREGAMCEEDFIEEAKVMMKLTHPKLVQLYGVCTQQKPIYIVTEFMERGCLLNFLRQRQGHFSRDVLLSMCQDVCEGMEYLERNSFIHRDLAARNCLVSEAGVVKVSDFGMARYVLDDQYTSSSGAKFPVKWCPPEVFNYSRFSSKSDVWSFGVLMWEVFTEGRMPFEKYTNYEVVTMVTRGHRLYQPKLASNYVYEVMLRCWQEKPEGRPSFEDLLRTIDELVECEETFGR
# [15] = Drug concentration in plasma of collagen-induced arthritis Lewis rat model 20 mg/kg measured after 1 hr post-collection of plasma; assay type: ADME, organism-based
# [16] = target: T3, Tyrosine-protein kinase TXK (Homo sapiens, UniProt P42681); experiment: Inhibition of RLK (unknown origin) using peptide substrate in presence of ATP
# T3 sequence (P42681 whole entry): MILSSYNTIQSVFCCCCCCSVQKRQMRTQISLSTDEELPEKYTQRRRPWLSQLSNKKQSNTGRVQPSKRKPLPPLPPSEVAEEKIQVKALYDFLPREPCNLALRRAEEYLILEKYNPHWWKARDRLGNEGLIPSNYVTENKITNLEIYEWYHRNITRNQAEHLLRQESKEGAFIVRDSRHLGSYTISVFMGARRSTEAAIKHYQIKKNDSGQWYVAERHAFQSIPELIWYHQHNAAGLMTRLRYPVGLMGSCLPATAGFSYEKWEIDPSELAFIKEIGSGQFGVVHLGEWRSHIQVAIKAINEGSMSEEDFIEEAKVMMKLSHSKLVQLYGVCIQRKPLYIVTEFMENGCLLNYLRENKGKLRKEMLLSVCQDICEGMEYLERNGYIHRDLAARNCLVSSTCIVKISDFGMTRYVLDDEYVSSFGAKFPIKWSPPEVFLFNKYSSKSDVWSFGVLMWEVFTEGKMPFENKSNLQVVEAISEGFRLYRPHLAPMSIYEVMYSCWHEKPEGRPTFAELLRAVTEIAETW
# [17] = Drug concentration in plasma of collagen-induced arthritis Lewis rat model 20 mg/kg measured after 12 hrs post-collection of plasma; assay type: ADME, organism-based
# [18] = target: Tyrosine-protein kinase Blk (Homo sapiens, UniProt P51451); experiment: Inhibition of BLK (unknown origin) using peptide substrate in presence of ATP
# Sequence of Tyrosine-protein kinase Blk (P51451 whole entry): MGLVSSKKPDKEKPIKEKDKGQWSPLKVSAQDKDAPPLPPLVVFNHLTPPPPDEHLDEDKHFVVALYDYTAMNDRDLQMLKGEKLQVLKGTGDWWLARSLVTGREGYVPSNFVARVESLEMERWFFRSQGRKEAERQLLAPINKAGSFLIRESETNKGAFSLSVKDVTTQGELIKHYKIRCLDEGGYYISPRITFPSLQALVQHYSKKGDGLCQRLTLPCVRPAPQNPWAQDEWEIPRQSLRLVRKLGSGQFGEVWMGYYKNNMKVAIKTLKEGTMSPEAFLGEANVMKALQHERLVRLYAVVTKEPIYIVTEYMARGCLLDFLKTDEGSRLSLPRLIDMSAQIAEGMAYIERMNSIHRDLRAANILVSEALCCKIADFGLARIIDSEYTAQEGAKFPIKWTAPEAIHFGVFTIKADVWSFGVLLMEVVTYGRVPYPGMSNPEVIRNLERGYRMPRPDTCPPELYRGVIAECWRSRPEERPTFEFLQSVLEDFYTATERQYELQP
# Sequence of Voltage-gated inwardly rectifying potassium channel KCNH2 (Q12809 whole entry): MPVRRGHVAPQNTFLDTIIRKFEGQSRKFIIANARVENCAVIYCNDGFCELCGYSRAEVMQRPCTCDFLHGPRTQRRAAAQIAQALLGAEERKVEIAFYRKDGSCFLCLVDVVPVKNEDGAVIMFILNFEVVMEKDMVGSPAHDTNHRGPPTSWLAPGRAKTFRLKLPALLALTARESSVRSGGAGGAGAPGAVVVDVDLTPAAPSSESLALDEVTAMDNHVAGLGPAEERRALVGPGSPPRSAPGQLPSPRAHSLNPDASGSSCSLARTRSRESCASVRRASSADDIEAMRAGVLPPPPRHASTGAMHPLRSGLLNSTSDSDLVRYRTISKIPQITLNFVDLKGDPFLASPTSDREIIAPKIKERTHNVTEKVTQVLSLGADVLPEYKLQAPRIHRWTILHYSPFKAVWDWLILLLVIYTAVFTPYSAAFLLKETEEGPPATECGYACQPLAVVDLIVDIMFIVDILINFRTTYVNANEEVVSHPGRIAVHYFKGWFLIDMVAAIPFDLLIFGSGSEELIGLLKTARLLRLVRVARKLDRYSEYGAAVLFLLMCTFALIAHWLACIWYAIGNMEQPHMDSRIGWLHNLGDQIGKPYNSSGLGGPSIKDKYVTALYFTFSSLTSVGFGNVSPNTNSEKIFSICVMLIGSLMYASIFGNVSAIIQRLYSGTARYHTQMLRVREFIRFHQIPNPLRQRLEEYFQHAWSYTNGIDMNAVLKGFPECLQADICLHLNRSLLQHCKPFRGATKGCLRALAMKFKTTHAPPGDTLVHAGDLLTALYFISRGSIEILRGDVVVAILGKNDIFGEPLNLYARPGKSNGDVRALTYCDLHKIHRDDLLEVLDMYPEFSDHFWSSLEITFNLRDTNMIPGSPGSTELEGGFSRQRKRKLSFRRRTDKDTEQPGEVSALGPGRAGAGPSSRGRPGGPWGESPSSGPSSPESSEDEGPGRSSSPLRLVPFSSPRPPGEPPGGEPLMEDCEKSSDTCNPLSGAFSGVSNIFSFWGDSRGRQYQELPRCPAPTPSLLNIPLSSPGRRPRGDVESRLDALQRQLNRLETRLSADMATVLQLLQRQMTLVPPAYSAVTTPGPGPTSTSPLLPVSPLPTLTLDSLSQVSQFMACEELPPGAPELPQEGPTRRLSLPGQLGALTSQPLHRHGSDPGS
SMILES,Papp B→A [1] [×10⁻⁶ cm/s],microsomal CLint [2] [µL/min/mg],IC50 [3] [nM],solubility [7] [µM],Papp A→B [9] [×10⁻⁶ cm/s],further results
COCCN1CCN(C(C)(C)/C=C(\C#N)C(=O)N2CCC[C@@H](n3nc(-c4ccc(Oc5ccccc5)cc4F)c4c(N)ncnc43)C2)CC1,6,49,169,210,0.2,–
CC(C)(/C=C(\C#N)C(=O)N1CCC[C@@H](n2nc(-c3ccc(Oc4ccccc4)cc3F)c3c(N)ncnc32)C1)CO,–,–,821,–,–,–
CN1CCN(C(C)(C)/C=C(\C#N)C(=O)N2CCC[C@@H](n3nc(-c4ccc(Oc5ccccc5)cc4F)c4c(N)ncnc43)C2)CC1=O,5.5,80,130,90,0.4,bioavailability [4]: 10.9%; clearance [5]: 73 mL/min/kg; Cmax [6]: 345 ng/mL; AUC [8]: 528 ng·h/mL
CC(C)(N)/C=C(\C#N)C(=O)N1CCC[C@@H](n2nc(-c3ccc(Oc4ccccc4)cc3F)c3c(N)ncnc32)C1,–,–,360,–,–,–
N#C/C(=C/C1CC1)C(=O)N1CCC[C@@H]1Cn1nc(-c2ccc(Oc3ccccc3)cc2F)c2c(N)ncnc21,–,–,196,–,–,–
CC(C)(/C=C(\C#N)C(=O)N1CCC[C@@H](n2nc(-c3ccc(Oc4ccccc4)cc3F)c3c(N)ncnc32)C1)N1CCNCC1,3.4,–,401,238,0.07,–
CC1(/C=C(\C#N)C(=O)N2CCC[C@@H](n3nc(-c4ccc(Oc5ccccc5)cc4F)c4c(N)ncnc43)C2)COC1,–,–,224,–,–,–

# Continued by falling IC50 [3], values first:
Papp B→A [1] [×10⁻⁶ cm/s],microsomal CLint [2] [µL/min/mg],IC50 [3] [nM],solubility [7] [µM],Papp A→B [9] [×10⁻⁶ cm/s],SMILES,further results
–,–,442,–,–,C[C@@H]1CN(C(C)(C)/C=C(\C#N)C(=O)N2CCC[C@@H](n3nc(-c4ccc(Oc5ccccc5)cc4F)c4c(N)ncnc43)C2)C[C@H](C)N1,–
25.8,–,381,–,1,CC(C)(/C=C(\C#N)C(=O)N1CCC[C@@H](n2nc(-c3ccc(Oc4ccccc4)cc3F)c3c(N)ncnc32)C1)N1CCNC(=O)C1,–
22,–,193,31,0.6,CC(=O)N1CCN(C(C)(C)/C=C(\C#N)C(=O)N2CCC[C@@H](n3nc(-c4ccc(Oc5ccccc5)cc4F)c4c(N)ncnc43)C2)CC1,–
24,68,179,1.1,3.2,COC(=O)N1CCN(C(C)(C)/C=C(\C#N)C(=O)N2CCC[C@@H](n3nc(-c4ccc(Oc5ccccc5)cc4F)c4c(N)ncnc43)C2)CC1,bioavailability [4]: 11.5%; clearance [5]: 89 mL/min/kg; Cmax [6]: 142 ng/mL; AUC [8]: 432 ng·h/mL
–,–,158,–,–,CN(C)C(C)(C)/C=C(\C#N)C(=O)N1CCC[C@@H](n2nc(-c3ccc(Oc4ccccc4)cc3F)c3c(N)ncnc32)C1,–
2.5,14,128,263,0.3,C[C@@H]1CN(C(C)(C)/C=C(\C#N)C(=O)N2CCC[C@@H](n3nc(-c4ccc(Oc5ccccc5)cc4F)c4c(N)ncnc43)C2)C[C@H](C)N1C,bioavailability [4]: 67%; clearance [5]: 91 mL/min/kg; Cmax [6]: 392 ng/mL; AUC [8]: 2460 ng·h/mL; inhibition (INH) [10]: Active
5.3,23,123,125,1.7,CC(C)(/C=C(\C#N)C(=O)N1CCC[C@@H](n2nc(-c3ccc(Oc4ccccc4)cc3F)c3c(N)ncnc32)C1)N1CCN(C2COC2)CC1 [RILZABRUTINIB],concentration at 4 h [11]: 106 ng/mL; IC50 [12]: 1 nM; Cp [13]: Bld; IC50 [14]: 0.8 nM; bioavailability [4]: 12.3%; clearance [5]: 66 mL/min/kg; Cmax [6]: 270 ng/mL; concentration at 1 h [15]: 128 ng/mL; IC50 [16]: 1.2 nM; AUC [8]: 622 ng·h/mL; concentration at 12 h [17]: 4.6 ng/mL; IC50 [18]: 6.3 nM
–,–,16.7,–,–,CC(C)(/C=C(\C#N)C(=O)N1CCC[C@@H](n2nc(-c3ccc(Oc4ccccc4)cc3F)c3c(N)ncnc32)C1)N1CCOCC1,–
